Results published in ChEMBL document CHEMBL1795227, “Methanesulfonamido-cyclohexylamine derivatives of 2,4-diaminopyrimidine as potent ALK inhibitors” (Bioorg Med Chem Lett, 2011).
One block for each molecule: values may come before it.

Experiments:
[1] = biological target: Serine/threonine-protein kinase PAK 1 (Homo sapiens) (UniProt Q13153); test: Inhibition of PAK1 at 1 uM
[2] = biological target: Aurora kinase C (Homo sapiens) (UniProt Q9UQB9); test: Inhibition of AURKC at 1 uM
[3] = biological target: Vascular endothelial growth factor receptor 2 (Homo sapiens) (UniProt P35968); test: Inhibition of VEGFR2 at 1 uM
[4] = biological target: Aurora kinase B (Homo sapiens) (UniProt Q96GD4); test: Inhibition of AURKB at 1 uM
[5] = biological target: Mitogen-activated protein kinase 14 (Homo sapiens) (UniProt Q16539); test: Inhibition of p38 alpha at 1 uM
[6] = biological target: Ephrin type-A receptor 3 (Homo sapiens) (UniProt P29320); test: Inhibition of EPHA3 at 1 uM
[7] = biological target: Tyrosine-protein kinase ABL1 (Homo sapiens) (UniProt P00519); test: Inhibition of ABL1 at 1 uM
[8] = biological target: Fibroblast growth factor receptor 4 (Homo sapiens) (UniProt P22455); settings: 1 uM
Description: Inhibition of FGFR4 at 1 uM

[9] = biological target: Insulin-like growth factor 1 receptor (Homo sapiens) (UniProt P08069); test: Inhibition of IGF1R at 1 uM
[10] = biological target: Tyrosine-protein kinase receptor UFO (Homo sapiens) (UniProt P30530); test: Inhibition of AXL at 1 uM
[11] = biological target: Protein kinase C eta type (Homo sapiens) (UniProt P24723); test: Inhibition of PRKCH at 1 uM
[12] = biological target: RAC-alpha serine/threonine-protein kinase (Homo sapiens) (UniProt P31749); test: Inhibition of AKT1 at 1 uM
[13] = biological target: Serine/threonine-protein kinase B-raf (Homo sapiens) (UniProt P15056); test: Inhibition of BRAF at 1 uM
[14] = biological target: Tyrosine-protein kinase Lck (Homo sapiens) (UniProt P06239); test: Inhibition of LCK at 1 uM
[15] = biological target: Mitogen-activated protein kinase 9 (Homo sapiens) (UniProt P45984); test: Inhibition of JNK2 at 1 uM
[16] = biological target: RAF proto-oncogene serine/threonine-protein kinase (Homo sapiens) (UniProt P04049); test: Inhibition of RAF1 at 1 uM
[17] = biological target: Mitogen-activated protein kinase 10 (Homo sapiens) (UniProt P53779); test: Inhibition of JNK3 at 1 uM
[18] = biological target: Mitogen-activated protein kinase 12 (Homo sapiens) (UniProt P53778); test: Inhibition of p38 gamma at 1 uM
Mitogen-activated protein kinase 12 (Homo sapiens), sequence (P53778 whole entry): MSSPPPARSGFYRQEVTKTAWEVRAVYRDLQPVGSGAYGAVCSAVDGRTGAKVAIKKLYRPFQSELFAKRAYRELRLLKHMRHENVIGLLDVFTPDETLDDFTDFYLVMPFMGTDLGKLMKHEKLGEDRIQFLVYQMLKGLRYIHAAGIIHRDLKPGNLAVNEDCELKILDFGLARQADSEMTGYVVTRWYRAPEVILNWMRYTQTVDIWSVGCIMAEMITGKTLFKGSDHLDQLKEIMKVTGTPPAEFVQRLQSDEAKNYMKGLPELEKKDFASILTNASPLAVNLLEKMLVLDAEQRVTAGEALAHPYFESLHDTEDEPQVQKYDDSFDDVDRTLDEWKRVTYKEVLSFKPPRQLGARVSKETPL

[19] = tested on: Serine/threonine-protein kinase B-raf (Homo sapiens), P15056 [V600E]; test: Inhibition of BRAF V600E at 1 uM
[20] = biological target: Serine/threonine-protein kinase PAK 4 (Homo sapiens) (UniProt O96013); test: Inhibition of PAK4 at 1 uM
Serine/threonine-protein kinase PAK 4 (Homo sapiens), sequence (O96013 whole entry, looked up): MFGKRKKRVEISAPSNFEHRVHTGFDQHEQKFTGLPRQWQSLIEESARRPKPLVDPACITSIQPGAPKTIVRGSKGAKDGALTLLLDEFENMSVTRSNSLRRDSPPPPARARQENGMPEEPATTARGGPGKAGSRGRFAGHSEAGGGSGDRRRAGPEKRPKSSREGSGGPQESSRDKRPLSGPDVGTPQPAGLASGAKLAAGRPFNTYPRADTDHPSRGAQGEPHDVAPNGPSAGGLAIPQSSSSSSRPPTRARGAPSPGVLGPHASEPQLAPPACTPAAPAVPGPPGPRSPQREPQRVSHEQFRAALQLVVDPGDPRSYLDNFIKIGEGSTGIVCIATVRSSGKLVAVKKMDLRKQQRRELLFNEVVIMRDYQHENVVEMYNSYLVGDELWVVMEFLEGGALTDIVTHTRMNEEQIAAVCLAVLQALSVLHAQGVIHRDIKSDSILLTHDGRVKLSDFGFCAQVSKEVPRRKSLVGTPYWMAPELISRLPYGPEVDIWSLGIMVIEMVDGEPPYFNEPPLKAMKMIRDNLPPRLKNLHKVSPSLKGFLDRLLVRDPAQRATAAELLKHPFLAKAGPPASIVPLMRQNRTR

[21] = biological target: Serine/threonine-protein kinase pim-2 (Homo sapiens) (UniProt Q9P1W9); test: Inhibition of PIM2 at 1 uM
Serine/threonine-protein kinase pim-2 (Homo sapiens), sequence (Q9P1W9 whole entry, looked up): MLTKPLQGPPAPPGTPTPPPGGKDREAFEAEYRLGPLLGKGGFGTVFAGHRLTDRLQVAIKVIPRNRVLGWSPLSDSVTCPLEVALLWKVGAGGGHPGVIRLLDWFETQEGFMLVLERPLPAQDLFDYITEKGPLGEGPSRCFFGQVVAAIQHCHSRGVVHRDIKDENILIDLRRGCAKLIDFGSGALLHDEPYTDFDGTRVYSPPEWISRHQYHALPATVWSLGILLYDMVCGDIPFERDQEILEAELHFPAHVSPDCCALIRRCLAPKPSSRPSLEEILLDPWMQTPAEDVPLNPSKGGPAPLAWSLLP

[22] = tested on: Mast/stem cell growth factor receptor Kit (Homo sapiens), P10721 [D816V]; settings: 1 uM
Description: Inhibition of KIT D816V at 1 uM

[23] = biological target: Hepatocyte growth factor receptor (Homo sapiens) (UniProt P08581); test: Inhibition of MET at 1 uM
[24] = biological target: Fibroblast growth factor receptor 3 (Homo sapiens) (UniProt P22607); settings: 1 uM
Description: Inhibition of FGFR3 at 1 uM

[25] = biological target: TGF-beta receptor type-1 (Homo sapiens) (UniProt P36897); test: Inhibition of TGFBR1 at 1 uM
[26] = biological target: Platelet-derived growth factor receptor beta (Homo sapiens) (UniProt P09619); settings: 1 uM
Description: Inhibition of PDGFR beta at 1 uM

[27] = biological target: ALK tyrosine kinase receptor (Homo sapiens, UniProt Q9UM73); settings: 1 uM
Description: Inhibition of ALK at 1 uM

[28] = biological target: Angiopoietin-1 receptor (Homo sapiens) (UniProt Q02763); test: Inhibition of Tie2 at 1 uM
[29] = biological target: Tyrosine-protein kinase SYK (Homo sapiens) (UniProt P43405); test: Inhibition of SYK at 1 uM
[30] = tested on: Tyrosine-protein kinase ABL1 (Homo sapiens), P00519 [T315I]; test: Inhibition of ABL1 T315I at 1 uM
[31] = biological target: Serine/threonine-protein kinase pim-1 (Homo sapiens) (UniProt P11309); test: Inhibition of PIM1 at 1 uM
[32] = biological target: Receptor tyrosine-protein kinase erbB-2 (Homo sapiens) (UniProt P04626); test: Inhibition of ERBB2 at 1 uM
[33] = biological target: Mitogen-activated protein kinase 8 (Homo sapiens) (UniProt P45983); test: Inhibition of JNK1 at 1 uM
[34] = biological target: Tyrosine-protein kinase BTK (Homo sapiens) (UniProt Q06187); test: Inhibition of BTK at 1 uM
Tyrosine-protein kinase BTK (Homo sapiens), sequence (Q06187 whole entry): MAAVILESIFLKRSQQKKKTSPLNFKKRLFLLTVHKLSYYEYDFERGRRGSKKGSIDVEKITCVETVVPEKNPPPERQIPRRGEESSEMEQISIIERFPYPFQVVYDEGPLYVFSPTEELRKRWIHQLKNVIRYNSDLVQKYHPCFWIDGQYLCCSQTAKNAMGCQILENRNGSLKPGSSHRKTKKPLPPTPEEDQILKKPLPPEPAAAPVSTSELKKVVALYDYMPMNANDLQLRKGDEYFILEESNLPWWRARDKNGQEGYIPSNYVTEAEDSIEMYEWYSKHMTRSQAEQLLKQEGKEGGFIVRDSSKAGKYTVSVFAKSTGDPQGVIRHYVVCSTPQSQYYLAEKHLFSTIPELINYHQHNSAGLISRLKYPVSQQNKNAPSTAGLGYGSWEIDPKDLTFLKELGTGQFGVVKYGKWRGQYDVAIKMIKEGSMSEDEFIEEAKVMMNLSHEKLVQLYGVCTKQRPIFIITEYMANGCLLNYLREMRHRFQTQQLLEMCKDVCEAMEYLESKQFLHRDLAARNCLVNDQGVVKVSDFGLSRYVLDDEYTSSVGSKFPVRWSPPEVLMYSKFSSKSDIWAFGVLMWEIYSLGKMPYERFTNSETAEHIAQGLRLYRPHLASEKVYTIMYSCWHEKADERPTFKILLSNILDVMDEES

[35] = biological target: Serine/threonine-protein kinase PLK1 (Homo sapiens) (UniProt P53350); test: Inhibition of PLK1 at 1 uM
[36] = biological target: Cyclin-dependent kinase 2 (Homo sapiens) (UniProt P24941); test: Inhibition of CDK2 at 1 uM
[37] = biological target: Ephrin type-A receptor 2 (Homo sapiens) (UniProt P29317); test: Inhibition of EPHA2 at 1 uM
[38] = biological target: Fibroblast growth factor receptor 2 (Homo sapiens) (UniProt P21802); test: Inhibition of FGFR2 at 1 uM
[39] = biological target: High affinity nerve growth factor receptor (Homo sapiens) (UniProt P04629); test: Inhibition of TRKA at 1 uM
[40] = biological target: Mast/stem cell growth factor receptor Kit (Homo sapiens) (UniProt P10721); test: Inhibition of KIT at 1 uM
[41] = biological target: Tyrosine-protein kinase JAK2 (Homo sapiens) (UniProt O60674); test: Inhibition of JAK2 domain 2 at 1 uM
[42] = biological target: Platelet-derived growth factor receptor alpha (Homo sapiens) (UniProt P16234); test: Inhibition of PDGFRalpha at 1 uM
[43] = tested on: Mast/stem cell growth factor receptor Kit (Homo sapiens), P10721 [V559D,T670I]; test: Inhibition of KIT V559D T670I at 1 uM
[44] = biological target: Glycogen synthase kinase-3 alpha (Homo sapiens) (UniProt P49840); test: Inhibition of GSK3A at 1 uM
[45] = biological target: Insulin receptor (Homo sapiens, UniProt P06213); test: Inhibition of INSR at 1 uM
Insulin receptor, sequence (P06213 28-758 limits assumed): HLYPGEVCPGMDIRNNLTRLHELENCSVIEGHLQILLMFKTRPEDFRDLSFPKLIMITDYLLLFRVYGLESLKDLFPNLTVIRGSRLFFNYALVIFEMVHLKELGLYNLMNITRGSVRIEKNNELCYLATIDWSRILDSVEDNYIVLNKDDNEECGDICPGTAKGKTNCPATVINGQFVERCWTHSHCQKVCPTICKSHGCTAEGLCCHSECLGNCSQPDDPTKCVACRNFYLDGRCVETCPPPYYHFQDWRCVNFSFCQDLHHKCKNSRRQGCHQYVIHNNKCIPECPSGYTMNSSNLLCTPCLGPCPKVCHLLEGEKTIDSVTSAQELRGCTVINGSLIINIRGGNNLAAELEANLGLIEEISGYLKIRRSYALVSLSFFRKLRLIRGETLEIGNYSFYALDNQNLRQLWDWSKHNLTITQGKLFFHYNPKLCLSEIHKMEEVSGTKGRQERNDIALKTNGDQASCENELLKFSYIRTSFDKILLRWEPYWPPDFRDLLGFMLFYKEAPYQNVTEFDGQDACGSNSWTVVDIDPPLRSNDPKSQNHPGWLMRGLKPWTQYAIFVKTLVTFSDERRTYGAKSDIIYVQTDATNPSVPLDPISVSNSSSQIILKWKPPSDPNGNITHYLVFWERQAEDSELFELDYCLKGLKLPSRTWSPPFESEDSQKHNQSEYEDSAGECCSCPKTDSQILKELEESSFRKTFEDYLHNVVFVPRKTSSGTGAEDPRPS
Insulin receptor, sequence (P06213 763-1382 limits assumed): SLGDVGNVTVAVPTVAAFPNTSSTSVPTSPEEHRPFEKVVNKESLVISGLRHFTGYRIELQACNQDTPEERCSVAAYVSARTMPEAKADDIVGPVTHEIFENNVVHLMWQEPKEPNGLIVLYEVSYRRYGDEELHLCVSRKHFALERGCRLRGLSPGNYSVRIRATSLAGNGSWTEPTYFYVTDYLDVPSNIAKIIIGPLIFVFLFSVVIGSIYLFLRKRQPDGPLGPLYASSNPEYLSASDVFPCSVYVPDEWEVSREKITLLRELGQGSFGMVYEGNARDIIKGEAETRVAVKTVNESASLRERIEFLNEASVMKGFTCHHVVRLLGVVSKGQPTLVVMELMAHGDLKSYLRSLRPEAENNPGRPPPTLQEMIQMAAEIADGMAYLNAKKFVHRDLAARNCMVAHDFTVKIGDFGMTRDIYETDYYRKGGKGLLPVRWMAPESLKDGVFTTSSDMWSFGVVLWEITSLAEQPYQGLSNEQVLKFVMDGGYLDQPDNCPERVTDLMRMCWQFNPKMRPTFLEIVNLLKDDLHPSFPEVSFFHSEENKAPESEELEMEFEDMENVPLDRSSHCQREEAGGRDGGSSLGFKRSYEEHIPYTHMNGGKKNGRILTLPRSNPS

[46] = biological target: Mitogen-activated protein kinase 1 (Homo sapiens) (UniProt P28482); test: Inhibition of ERK2 at 1 uM
Mitogen-activated protein kinase 1 (Homo sapiens), sequence (P28482 whole entry): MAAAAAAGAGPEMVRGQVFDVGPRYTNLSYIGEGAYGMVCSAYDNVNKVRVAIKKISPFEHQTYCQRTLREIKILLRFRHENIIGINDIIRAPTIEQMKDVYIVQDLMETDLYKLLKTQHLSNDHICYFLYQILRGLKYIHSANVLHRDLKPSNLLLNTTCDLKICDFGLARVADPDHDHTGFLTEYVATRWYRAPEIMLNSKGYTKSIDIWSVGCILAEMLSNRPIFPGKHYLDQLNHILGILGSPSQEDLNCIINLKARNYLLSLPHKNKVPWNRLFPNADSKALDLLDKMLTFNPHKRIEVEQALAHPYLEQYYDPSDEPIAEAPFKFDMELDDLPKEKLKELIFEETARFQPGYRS

[47] = biological target: Proto-oncogene tyrosine-protein kinase receptor Ret (Homo sapiens) (UniProt P07949); test: Inhibition of RET at 1 uM
Proto-oncogene tyrosine-protein kinase receptor Ret (Homo sapiens), sequence (P07949 whole entry): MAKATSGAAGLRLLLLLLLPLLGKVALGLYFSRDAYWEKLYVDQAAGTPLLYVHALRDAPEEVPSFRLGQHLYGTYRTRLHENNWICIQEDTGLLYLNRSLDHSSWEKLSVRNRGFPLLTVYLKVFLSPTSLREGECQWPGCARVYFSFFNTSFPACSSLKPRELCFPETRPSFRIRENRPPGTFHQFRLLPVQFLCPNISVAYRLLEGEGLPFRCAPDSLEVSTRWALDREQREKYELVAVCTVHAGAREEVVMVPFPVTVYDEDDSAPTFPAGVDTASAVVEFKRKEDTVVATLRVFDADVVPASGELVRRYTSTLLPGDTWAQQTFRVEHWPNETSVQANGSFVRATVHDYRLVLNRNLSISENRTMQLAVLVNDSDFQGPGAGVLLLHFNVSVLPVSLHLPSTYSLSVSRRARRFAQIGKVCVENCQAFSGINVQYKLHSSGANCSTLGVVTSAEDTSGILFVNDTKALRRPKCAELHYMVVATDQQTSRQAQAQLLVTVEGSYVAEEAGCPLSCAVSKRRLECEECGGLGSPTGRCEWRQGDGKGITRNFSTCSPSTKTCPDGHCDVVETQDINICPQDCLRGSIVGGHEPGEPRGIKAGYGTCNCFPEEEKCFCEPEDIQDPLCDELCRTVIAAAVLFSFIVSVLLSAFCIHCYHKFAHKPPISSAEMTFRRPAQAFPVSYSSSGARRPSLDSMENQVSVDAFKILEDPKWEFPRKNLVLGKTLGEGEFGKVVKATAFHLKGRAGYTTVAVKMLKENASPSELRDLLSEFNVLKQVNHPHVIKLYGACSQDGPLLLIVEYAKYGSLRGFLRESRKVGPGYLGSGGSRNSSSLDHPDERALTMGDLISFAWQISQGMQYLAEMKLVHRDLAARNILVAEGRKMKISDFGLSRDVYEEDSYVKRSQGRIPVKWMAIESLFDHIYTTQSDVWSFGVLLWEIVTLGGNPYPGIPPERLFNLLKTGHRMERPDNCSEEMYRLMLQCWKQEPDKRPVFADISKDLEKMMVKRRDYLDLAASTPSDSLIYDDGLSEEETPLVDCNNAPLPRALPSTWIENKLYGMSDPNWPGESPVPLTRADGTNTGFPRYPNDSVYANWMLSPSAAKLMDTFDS

[48] = biological target: Activin receptor type-1 (Homo sapiens) (UniProt Q04771); test: Inhibition of ACVR1 at 1 uM
[49] = biological target: 3-phosphoinositide-dependent protein kinase 1 (Homo sapiens) (UniProt O15530); test: Inhibition of PDPK1 at 1 uM

- inhibition [1]: < 65%
- inhibition [2]: < 65%
- inhibition [3]: < 65%
- inhibition [4]: < 65%
- inhibition [5]: < 65%
- inhibition [6]: < 65%
- inhibition [7]: < 65%
- inhibition [8]: < 65%
- inhibition [9]: < 65%
- inhibition [10]: < 65%
- inhibition [11]: < 65%
- inhibition [12]: < 65%
- inhibition [13]: < 65%
- inhibition [14]: < 65%
- inhibition [15]: < 65%
- inhibition [16]: < 65%
- inhibition [17]: < 65%
- inhibition [18]: < 65%
- inhibition [19]: < 65%
- inhibition [20]: < 65%
- inhibition [21]: < 65%
- inhibition [22]: 97%
- inhibition [23]: < 65%
- inhibition [24]: < 65%
- inhibition [25]: < 65%
- inhibition [26]: < 65%
- inhibition [27]: 97%
- inhibition [28]: < 65%
- inhibition [29]: < 65%
- inhibition [30]: < 65%
- inhibition [31]: < 65%
- inhibition [32]: < 65%
- inhibition [33]: < 65%
- inhibition [34]: < 65%
- inhibition [35]: 94%
- inhibition [36]: < 65%
- inhibition [37]: < 65%
- inhibition [38]: < 65%
- inhibition [39]: < 65%
- inhibition [40]: < 65%
- inhibition [41]: < 65%
- inhibition [42]: < 65%
- inhibition [43]: < 65%
- inhibition [44]: < 65%
- inhibition [45]: < 65%
- inhibition [46]: < 65%
- inhibition [47]: < 65%
- inhibition [48]: < 65%
- inhibition [49]: < 65%
Compound: COCCN1CCc2cc(Nc3ncc(Cl)c(N[C@@H]4CCCC[C@H]4NS(C)(=O)=O)n3)c(OC)cc2CC1

- inhibition [1]: < 65%
- inhibition [2]: < 65%
- inhibition [3]: < 65%
- inhibition [4]: < 65%
- inhibition [5]: < 65%
- inhibition [6]: < 65%
- inhibition [7]: < 65%
- inhibition [8]: 100%
- inhibition [9]: 73%
- inhibition [10]: < 65%
- inhibition [11]: 79%
- inhibition [12]: < 65%
- inhibition [13]: < 65%
- inhibition [14]: < 65%
- inhibition [15]: < 65%
- inhibition [16]: < 65%
- inhibition [17]: 98%
- inhibition [18]: < 65%
- inhibition [19]: < 65%
- inhibition [20]: < 65%
- inhibition [21]: < 65%
- inhibition [22]: 100%
- inhibition [23]: < 65%
- inhibition [24]: 100%
- inhibition [25]: < 65%
- inhibition [26]: 100%
- inhibition [27]: 100%
- inhibition [28]: < 65%
- inhibition [29]: < 65%
- inhibition [30]: < 65%
- inhibition [31]: 90%
- inhibition [32]: < 65%
- inhibition [33]: 97%
- inhibition [34]: < 65%
- inhibition [35]: 96%
- inhibition [36]: < 65%
- inhibition [37]: < 65%
- inhibition [38]: 99%
- inhibition [39]: < 65%
- inhibition [40]: 96%
- inhibition [41]: < 65%
- inhibition [42]: < 65%
- inhibition [43]: 92%
- inhibition [44]: < 65%
- inhibition [45]: 70%
- inhibition [46]: < 65%
- inhibition [47]: < 65%
- inhibition [48]: < 65%
- inhibition [49]: < 65%
Compound: COCCN1CCc2cc(Nc3ncc(Cl)c(N[C@@H]4CCCC[C@H]4N(C)S(C)(=O)=O)n3)c(OC)cc2CC1
